Laboratory results as given in ChEMBL document CHEMBL1134046, “Phthalazine PDE4 inhibitors. Part 2: the synthesis and biological evaluation of 6-methoxy-1,4-disubstituted derivatives” (Bioorg Med Chem Lett, 2001).

Columns and labels:
Phosphodiesterase 4 [1] = target: T1, Phosphodiesterase 4 (Homo sapiens, UniProt P27815+Q08499+Q07343+Q08493); experiment: Percent inhibition of human neutrophil phosphodiesterase 4 at 10e-7 M; assay type: protein assay
Phosphodiesterase 4 [2] = target: T1, Phosphodiesterase 4; experiment: Percent inhibition of human Phosphodiesterase 4 at 10e-7 M; assay type: protein assay
Phosphodiesterase 4 [3] = target: T1, Phosphodiesterase 4; experiment: Inhibition of rolipram binding to PDE4 at 10e-5 M; assay type: protein assay
Cavia porcellus [4] = experiment: Percent inhibition of eosinophil infiltration in the guinea pig at 30 uM/kg ip; assay type: functional
Homo sapiens = species on record: Homo sapiens; experiment: Inhibition of TNF-alpha synthesis in human monocytes; assay type: functional, organism-based
Rattus norvegicus [5] = species on record: Rattus norvegicus; experiment: In vitro and metabolic stability was determined; assay type: ADME
Phosphodiesterase 4 [6] = target: T1, Phosphodiesterase 4; experiment: Inhibition of rolipram binding to PDE4; assay type: protein assay
Canis familiaris [7] = experiment: Emetic effect in dog after intravenous administration; assay type: functional; conditions: Canis lupus familiaris
Rattus norvegicus [8] = species on record: Rattus norvegicus; experiment: Increased acid secretion in the isolated whole rat stomach; assay type: functional
[9] = Oral bioavailability in rat; assay type: ADME, organism-based; conditions: in vivo
Phosphodiesterase 4 [10] = target: T1, Phosphodiesterase 4
Description: Inhibition of human Phosphodiesterase 4

Phosphodiesterase 4 [11] = target: T1, Phosphodiesterase 4; experiment: Inhibition of human neutrophil phosphodiesterase 4; assay type: protein assay
Phosphodiesterase 4 [12] = target: T1, Phosphodiesterase 4; experiment: Inhibition of human neutrophil Phosphodiesterase 4; assay type: protein assay
Phosphodiesterase 4 [13] = target: T1, Phosphodiesterase 4; experiment: Inhibition of rolipram binding to PDE4 at 10e-6 M; assay type: protein assay
Cavia porcellus [14] = experiment: Percent inhibition of eosinophil infiltration in the guinea pig at 30 uM/kg (ip); assay type: functional
Rattus norvegicus [15] = species on record: Rattus norvegicus; experiment: In vitro metabolic stability in rat hepatocytes; assay type: ADME, Hepatocyte
Canis familiaris [16] = experiment: Emetic effect in dog on intravenous administration; assay type: functional; conditions: Canis lupus familiaris

In the case of `COc1ccc2c(Cc3c(Cl)cncc3Cl)nnc(-n3ccnc3)c2c1`, the Inhibition (Phosphodiesterase 4 [1]) is reported as 17%.

`CCCNc1nnc(Cc2c(Cl)cncc2Cl)c2ccc(OC)cc12` gave an Inhibition (Phosphodiesterase 4 [2]) of 19%.

For `CCc1nnc(Cc2c(Cl)cncc2Cl)c2ccc(OC)cc12`, the Inhibition (Phosphodiesterase 4 [2]) was 23%.

With `COc1ccc2c(Cc3c(Cl)cncc3Cl)nnc(CCCCc3ccccc3)c2c1` the Inhibition (Phosphodiesterase 4 [2]) was 19%.

In the case of `COc1ccc2c(Cc3c(Cl)cncc3Cl)nncc2c1`, the Inhibition (Phosphodiesterase 4 [3]) is reported as 42%.

In the case of `COc1ccc2c(Cc3c(Cl)cncc3Cl)nnc(-c3ccccc3)c2c1`, the Inhibition (Cavia porcellus [4]) is reported as 34%, the IC50 (Homo sapiens) is reported as 46 nM and the “Met. stab. Cl. int” value (Rattus norvegicus [5]) is reported as 5.8 ul min-1 (10e6*cells)-1. For the same compound, the Ki (Phosphodiesterase 4 [6]) was 271 nM, the ED50 (Canis familiaris [7]) was > 30 µmol/kg and the IC50 (Rattus norvegicus [8]) was 4000 nM. It also gave a bioavailability [9] of 27% and an IC50 (Phosphodiesterase 4 [10]) of 37 nM.

Compound `COc1ccc2c(Cc3c(Cl)cncc3Cl)nnc(Oc3ccccc3)c2c1` has an IC50 (Phosphodiesterase 4 [11]) of 132 nM, an IC50 (Homo sapiens) of 166 nM and a Ki (Phosphodiesterase 4 [6]) of 436 nM.

For `C#Cc1nnc(Cc2c(Cl)cncc2Cl)c2ccc(OC)cc12`, the IC50 (Homo sapiens) was 87 nM, the Ki (Phosphodiesterase 4 [6]) was 204 nM and the IC50 (Phosphodiesterase 4 [10]) was 93 nM.

Compound `COc1ccc2c(Cc3c(Cl)cncc3Cl)nnc(N(C)C)c2c1` has an Inhibition (Phosphodiesterase 4 [2]) of 39%.

Compound `COc1ccc2c(Cc3c(Cl)cncc3Cl)nnc(N3CCN(C)CC3)c2c1` has an Inhibition (Phosphodiesterase 4 [2]) of 16%.

With `COc1ccc2c(Cc3c(Cl)cncc3Cl)nnc(N3CCCC3=O)c2c1` the Inhibition (Phosphodiesterase 4 [1]) was 6%.

With `COc1ccc2c(Cc3c(Cl)cncc3Cl)nnc(N3CCOCC3)c2c1` the IC50 (Phosphodiesterase 4 [12]) was 132 nM, the IC50 (Homo sapiens) was 62 nM and the Ki (Phosphodiesterase 4 [6]) was 452 nM.

`COc1ccc2c(Cc3c(Cl)cncc3Cl)nncc2c1OC1CCCC1` gave an IC50 (Homo sapiens) of 224 nM.

In the case of `COc1ccc2c(Cc3c(Cl)cncc3Cl)nnc(-c3nccs3)c2c1`, the IC50 (Homo sapiens) is reported as 8 nM, the Ki (Phosphodiesterase 4 [6]) is reported as 34 nM and the IC50 (Phosphodiesterase 4 [10]) is reported as 14 nM.

With `COc1ccc2c(Cc3c(Cl)cncc3Cl)nnc(N3CCCC3)c2c1` the IC50 (Homo sapiens) was 9 nM, the Ki (Phosphodiesterase 4 [6]) was 89 nM and the IC50 (Phosphodiesterase 4 [10]) was 38 nM.

`COc1ccc2c(Cc3c(Cl)c[n+]([O-])cc3Cl)nnc(-c3nccs3)c2c1` gave an IC50 (Homo sapiens) of 3 nM, a Ki (Phosphodiesterase 4 [6]) of 17 nM and an IC50 (Phosphodiesterase 4 [10]) of 4 nM.

Compound `COc1ccc2c(Cc3c(Cl)cncc3Cl)nnc(C#Cc3ccccc3)c2c1` has an Inhibition (Phosphodiesterase 4 [13]) of 21%, an IC50 (Homo sapiens) of 273 nM and an IC50 (Phosphodiesterase 4 [10]) of 48 nM.

Work on `COc1ccc2c(Cc3c(Cl)cncc3Cl)nnc(-n3cncn3)c2c1` yielded an IC50 (Phosphodiesterase 4 [11]) of 72 nM, an Inhibition (Cavia porcellus [14]) of 37% and an IC50 (Homo sapiens) of 72 nM. The “Met. stab. Cl. int” value (Rattus norvegicus [15]) was 1.5 ul min-1 (10e6*cells)-1, the Ki (Phosphodiesterase 4 [6]) was 241 nM and the ED50 (Canis familiaris [7]) was > 30 µmol/kg. The IC50 (Rattus norvegicus [8]) was > 30000 nM, the Inhibition (Rattus norvegicus [8]) was 33% and the bioavailability [9] was 27%.

For `COc1ccc([C@]2(C#N)CC[C@@H](C(=O)O)CC2)cc1OC1CCCC1` [CILOMILAST], the ED50 (Canis familiaris [16]) was 10 µmol/kg, the Inhibition (Cavia porcellus [14]) was 17% and the IC50 (Homo sapiens) was 158 nM. The “Met. stab. Cl. int” value (Rattus norvegicus [15]) was 9.2 ul min-1 (10e6*cells)-1, the IC50 (Rattus norvegicus [8]) was 1000 nM and the bioavailability [9] was 35%.
